8 compounds from patent US10227324B2 (Shanghai Haiyan Pharmaceutical Technology Co., Ltd., priority 2014, dated 2019) can be followed below.

One assay relates to NIH3T3 cells. Nature of the assay: Cytotoxicity by MTT assay, NIH3T3. In kind it is cell-based. The note with it: Mus musculus, NIH3T3, 72 h, cytotoxicity class, read-out: NIH3T3 cell (IC50/nM). Here is the method: The MTT assay procedure and steps were carried out as well known to those skilled in the art, and all the reagents used in the methods were commercially available.
The cells in logarithmic growth phase were digested with 0.25% EDTA trypsin (Gibco, 25200-056) and resuspended in fresh medium. 90 μL of the cell suspension was inoculated into a 96-well cell culture plate (BD Faclon 353072) with a suitable cell density and cultured at 37° C. under 5% CO2. After the cells adhered, 10 μL of the test compound at different concentrations (0.0046-10 μM, 8 concentration points) was added and incubated for another 72 h. 10 μL of MTT (5 mg/mL PBS solution) (Sigma, M5655) was added to react for 4 h. The absorbance at 492 nm was measured by using Thermo Scientific Multiskan MK3 microplate reader and IC50 was calculated using XLFIT 5.0 software (UK IDBS).
A general note: Tetrazolium dyes change colour on reduction, which living cells bring about.

The target of assay [1] is T1, PI3K-α kinase (p110α/p85α) (Homo sapiens, UniProt P42336).
T1 construct: purchased Invitrogen PV4788
Nature of the assay: Determination of PI3K kinase activity (ADP Transcreener, fluorescence polarization). In kind it is biochemical. To be noted: Table 2; ATP 10 μM; read-out: PI3K-α/nM (IC50 of inhibitory activity against PI3K-α kinase). Here is the method: The inhibition of PI3K kinase activity by the compound to be tested was determined by the following method. The working concentration of each component in the 25 μL enzyme reaction system was: p110α/p85α 3 ng (or p110β/p85α 60 ng, or p110δ/p85α 90 ng, or p110γ 100 ng), ATP 10 μM, PIP2: PS (Invitrogen PV5100) 30 μM and the DMSO concentration was 2% after addition of the compound to be tested.
At the time of the test, the compound to be tested was dissolved in dimethylsulfoxide (DMSO) according to the desired concentration of the experiment. The compound to be tested was gradiently diluted 3 times (0.00046-1 μM, 8 concentration points) with 10% DMSO. 5 μL of the compound to be tested was added to each well of a 96-well plate (Greiner 675076) in duplicate. […] 10 μL of ATP/PIP2: PS and 10 μL of the PI3K enzyme working solution were added to each well in a 96-well plate. The plate was shaken and mixed uniformly, and then incubated at 25° C. for 1 hour. At the same time, ADP and ATP (0.01 μM, 0.02 μM, 0.04 μM, 0.06 μM, 0.08 μM[…], 0.1 μM, 0.25 μM, 0.5 μM, 1 μM, 2 μM, 5 μM, 10 μM, 12 concentration points) were diluted with buffer to set the standard curve. After completion of the enzyme reaction, 25 μL of ADP assay solution (1% 100×ADP tracer, 0.79% ADP antibody and 10% 10× reaction stop solution) was added and incubated at 25° C. for 1 hour. Fluorescence polarization value [mP] of each well was measured with a Perkin Elmer Victor X5 Fluorescent Microplate. The ADP concentration [ADP] was calculated from the ADP/ATP standard curve and the IC50 values were calculated using the XLFit software.

T1 sequence (P42336 whole entry): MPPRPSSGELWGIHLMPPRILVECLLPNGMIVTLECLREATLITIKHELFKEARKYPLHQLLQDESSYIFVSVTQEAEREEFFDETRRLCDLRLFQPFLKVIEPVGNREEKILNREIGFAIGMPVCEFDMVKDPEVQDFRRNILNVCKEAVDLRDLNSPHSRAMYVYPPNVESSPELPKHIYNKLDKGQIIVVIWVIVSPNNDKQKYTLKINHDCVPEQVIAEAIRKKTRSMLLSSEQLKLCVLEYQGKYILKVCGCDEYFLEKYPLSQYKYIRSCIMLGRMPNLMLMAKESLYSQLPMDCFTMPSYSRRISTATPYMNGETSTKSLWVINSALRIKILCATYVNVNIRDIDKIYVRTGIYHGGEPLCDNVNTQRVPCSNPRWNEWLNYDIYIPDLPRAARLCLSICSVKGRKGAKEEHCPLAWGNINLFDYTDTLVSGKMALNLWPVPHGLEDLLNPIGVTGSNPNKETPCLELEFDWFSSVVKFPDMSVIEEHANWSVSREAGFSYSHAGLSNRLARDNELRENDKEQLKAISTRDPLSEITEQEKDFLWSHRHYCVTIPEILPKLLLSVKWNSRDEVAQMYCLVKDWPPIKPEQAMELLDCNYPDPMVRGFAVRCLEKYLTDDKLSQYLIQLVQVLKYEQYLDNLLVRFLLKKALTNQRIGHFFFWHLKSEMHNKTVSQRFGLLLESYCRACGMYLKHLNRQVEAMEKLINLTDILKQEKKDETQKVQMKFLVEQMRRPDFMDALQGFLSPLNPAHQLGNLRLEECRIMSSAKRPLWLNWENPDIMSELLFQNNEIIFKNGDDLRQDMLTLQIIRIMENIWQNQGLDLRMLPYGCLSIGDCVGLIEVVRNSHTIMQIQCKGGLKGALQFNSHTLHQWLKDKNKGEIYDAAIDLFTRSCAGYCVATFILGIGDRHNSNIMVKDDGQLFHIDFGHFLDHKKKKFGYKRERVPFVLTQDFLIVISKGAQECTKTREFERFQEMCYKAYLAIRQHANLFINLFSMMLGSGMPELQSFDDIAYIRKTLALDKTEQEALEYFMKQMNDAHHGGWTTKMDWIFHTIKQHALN
T1 sequence (P27986 whole entry partner): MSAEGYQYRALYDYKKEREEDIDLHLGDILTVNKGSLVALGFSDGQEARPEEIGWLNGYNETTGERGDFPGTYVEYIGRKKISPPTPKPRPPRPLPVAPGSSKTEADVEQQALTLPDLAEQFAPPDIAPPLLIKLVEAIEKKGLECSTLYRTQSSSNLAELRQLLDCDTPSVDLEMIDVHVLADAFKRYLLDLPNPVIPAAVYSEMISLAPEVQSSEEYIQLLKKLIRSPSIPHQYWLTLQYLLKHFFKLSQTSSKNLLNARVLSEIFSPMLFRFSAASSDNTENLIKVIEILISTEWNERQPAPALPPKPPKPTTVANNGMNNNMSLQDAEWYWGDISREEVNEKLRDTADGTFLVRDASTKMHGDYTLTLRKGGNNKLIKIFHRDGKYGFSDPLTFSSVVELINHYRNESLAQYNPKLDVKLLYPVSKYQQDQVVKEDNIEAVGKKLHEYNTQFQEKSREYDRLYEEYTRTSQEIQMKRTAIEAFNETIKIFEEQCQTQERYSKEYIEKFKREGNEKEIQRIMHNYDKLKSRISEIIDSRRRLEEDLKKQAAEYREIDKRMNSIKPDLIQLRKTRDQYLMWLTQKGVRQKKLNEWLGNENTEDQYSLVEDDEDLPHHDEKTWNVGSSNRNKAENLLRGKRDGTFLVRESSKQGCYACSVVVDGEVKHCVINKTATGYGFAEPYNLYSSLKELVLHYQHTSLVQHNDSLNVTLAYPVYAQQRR

With `CCOC(=O)C1(c2cc(-c3cnc(N)cc3C(F)(F)F)nc(N3CCOCC3)n2)CC1` [Compound S-2], the IC50 with NIH3T3 cells was 5000 to 10000 nM; in assay [1], 550 nM.

With `Nc1cc(C(F)(F)F)c(-c2cc(C3(C(=O)N4CCOCC4)CC3)nc(N3CCOCC3)n2)cn1` [Compound S-3, (1-(6-(6-amino-4-(trifluoromethyl)pyridin-3-yl)-2-morpholinopyrimidin-4-yl)cyclopropyl)(morpholino)ketone], the figures for the IC50 (in the assay with NIH3T3 cells; in assay [1]) were over 10000 nM and 280 nM, respectively.

As to `Nc1cc(C(F)(F)F)c(-c2cc(C3(CN4CCOCC4)CC3)nc(N3CCOCC3)n2)cn1` [Compound S-8, 5-(2-morpholino-6-(1-(morpholinomethyl)cyclopropyl)pyrimidin-4-yl)-4-(trifluoromethyl)pyridin-2-amine], the IC50 in the assay with NIH3T3 cells is over 10000 nM.

Regarding `C[C@H]1COCCN1c1nc(-c2cnc(N)cc2C(F)(F)F)cc(C2(S(=O)(=O)c3ccccc3)CCC2)n1` [Compound S-15], the IC50 with NIH3T3 cells was in the range of 5000 to 10000 nM.

In the case of `CC(=O)NC1(c2cc(-c3cnc(N)cc3C(F)(F)F)nc(N3CCOCC3)n2)CC1` [Compound S-26, N-(1-(6-(6-amino-4-(trifluoromethyl)pyridin-3-yl)-2-morpholinopyrimidin-4-yl)cyclopropyl)acetamide], the IC50 in the assay on NIH3T3 cells is over 10000 nM; in assay [1], 390 nM.

`CNc1cc(C(F)(F)F)c(-c2cc(C3(S(C)(=O)=O)CC3)nc(N3CCOCC3)n2)cn1` [Compound S-36]: the IC50 in the assay with NIH3T3 cells is 3000 to 5000 nM.

For the compound `CS(=O)(=O)C1(c2cc(-c3cnc(N)c(C(F)(F)F)c3)nc(N3CCOCC3)n2)CC1` [Compound S-44, 5-(6-(1-(methylsulfonyl)cyclopropyl)-2-morpholinopyrimidin-4-yl)-3-(trifluoromethyl)pyridin-2-amine], the IC50 is 1000 to 3000 nM with NIH3T3 cells and 858 nM in assay [1].

As for `CC(C)(c1cc(-c2cnc(N)cc2C(F)(F)F)nc(N2CCOCC2)n1)n1ncc2ccccc21` [Compound S-56, 5-(6-(2-(1H-indazol-1-yl)propan-2-yl)-2-morpholinopyrimidin-4-yl)-4-(trifluoromethyl)pyridin-2-amine], in the assay on NIH3T3 cells, the IC50 was over 10000 nM.
